# Measurements reported in patent publication US10993959B2, “Methods and compositions for increasing the suppressive function of regulatory T-cells (Tregs)” (Regents of the University of Minnesota, priority 2015, dated 2021).
# “Also recorded” adds a separate entry of the source.
# Assays:
# Tregs [1] = test: flow cytometry of marker expression in activated Tregs; format: cell-based, mouse
# Description: (§1) Lethally irradiated BALB/c mice were given 10e6 C57BL/6 bone marrow only (BM), or BM with 2e6 CD4+25−/CD8+25− Tcon cells without (BM+T) or with 1e6 Tregs treated with either DMSO (DMSO) or 10 μM AEB071 (AEB071) for 30 minutes. […] Tregs were treated with DMSO or AEB071 as above, and activated overnight with plate bound anti-CD3/28 and IL-2. […] […] Tregs were treated with DMSO or AEB071 and activated as above. […] Tregs were transfected with vimentin siRNA (vim) or control (GFP), and activated for 36 hours. CFSE-labeled Tcon were mixed with T-cell depleted splenocytes and soluble anti-CD3 mAb. Treg:Tcon ratios of 1:1-1:27 were plated and CFSE dilution assessed after 3 days.
# Bars show mean±SEM. *, p<0.05; **, P<0.01; ***, P<0.0001; ****, p<0.00001 (Student's t-tests or one-way ANOVA with Tukey's post-test).
# Ratios of 0:1, 1:1, 1:3, 1:9 and 1:27 Treg:Teff were made. Four replicates of each ratio were made and plated in a 96-well, round bottom plate. After 3 days in culture, the cells from each well were harvested, washed with PBS and then stained with antibodies for flow cytometry analysis of CFSE dilution (proliferation) of CD4 and CD8 Tcon. The antibodies used were as follows: CD4-BV510, CD8-PE-ef610, CD25-BV605, Nrp1-PerCP-ef710, Lag3-APC, Fixable viability dye-APC-ef780, Foxp3-PE-Cy7, and Vimentin-PE.
# Tcon-APC interactions = test: multi-photon microscopy on D4 after transplant; format: in vivo, mouse; settings: AEB071-treated Tregs vs DMSO
# Description: (§2) As Tregs exert much of their protective effect against GVHD early in the course of the disease, proliferation of GVHD-causing conventional T-cells (Tcon) on D4 after transplant was analyzed. […] Multi-photon microscopy on D4 was performed after transplant using TEα-GFP Tcon, CD11c-eYFP antigen presenting cells (APCs) and wild-type Tregs.
# splenic Tregs = test: flow cytometry of Tregs from acute GVHD recipients; format: in vivo, mouse; settings: AEB071 vs DMSO treated Tregs isolated from acute GVHD mice
# Tregs [2] = test: Treg metabolic activity (OCR, ECAR, BoDipyC1-C12 uptake); format: cell-based, mouse; settings: AEB071 vs DMSO, after activation
# Description: as §1
# FIG. 9C is a graph showing basal and maximal oxygen consumption rate (OCR) and extracellular acidification rate (ECAR) measured after transfection. Tregs were transfected with either control (non-targeting) or vimentin siRNA. […] Bars show mean±SEM. Survival differences analyzed by log-rank test. *, p<0.05; **, P<0.01; ***, P<0.0001; ****, p<0.00001 (Student's t-tests or one-way ANOVA with Tukey's post-test).
# [3] = system: in vitro-expanded human Tregs; test: phosphoproteomic screen with human Treg cells; format: cell-based
# Description: Utilizing mass spectroscopy, a total of 12,452 phosphorylation sites were quantified from human Tregs. In order to determine significant differences between DMSO-treated and AEB071-treated Tregs, two experiments were performed concurrently: • Forward experiment: This experiment utilized heavy isotope-labeled Tregs treated with AEB071 and medium isotope-labeled Tregs treated with DMSO. • Reverse experiment: medium isotope-labeled Tregs treated with AEB071 and heavy isotope-labeled Tregs treated with DMSO.
# After processing the raw spectra with Max Quant software, the positively identified phosphopeptides were analyzed using Persus software. Contaminating peptides and reverse database hits were filtered out and the peptide intensity values and normalized H/M ratios were log 2 transformed. The significances of the individual H/M ratios calculated using the Significance B test with a false discovery rate of 0.05 for the forward and reverse experiment separately.
# Relying only on the Sig B test, the overlap between the two data sets was low with only 15% overlap. In order to improve the overlap between the two data sets, the data was filtered based on fold change (<1.5), consistency of ratios, phospho site localization probability (<75%), and the MaxQuant score (<75). By filtering the results, the overlap improved to 60%.
# acute GVHD = test: mouse MHC class I/II disparate acute GVHD model; format: in vivo
# Description: as §1
# (§3) FIG. 9A is a graph showing the percent survival of recipients. Tregs were transfected with either control (non-targeting) or vimentin siRNA. Recipient mice were given BM alone, BM+Tcon (BM+T), or BM+Tcon+Tregs; Tregs pre-treated with control or vimentin siRNA. […] Bars show mean±SEM. Survival differences analyzed by log-rank test. *, p<0.05; **, P<0.01; ***, P<0.0001; ****, p<0.00001 (Student's t-tests or one-way ANOVA with Tukey's post-test).
# as §3, with “9B” for “9A”, “clinical GVHD scores (0=no disease, 10=most severe disease) for” for “percent survival of”
# as §2, with “Tregs. […]” for “Tregs.”
# PKC-θ/vimentin = biological target: T1, PKC-θ/vimentin (Mus musculus, UniProt Q02111); test: confocal microscopy of PKC-θ and vimentin staining in activated Tregs; format: cell-based
# T1 construct: endogenous in cells
# Description: FIG. 8A are photographs of the results of experiments in which Tregs were pre-treated with DMSO (control), AEB071, or vimentin siRNA, then activated. PKC-θ and vimentin staining were analyzed by confocal microscopy.
# Since PKC-θ localization and function appear to be linked, experiments were performed to understand whether PKC-θ inhibition modulated PKC-θ localization. Consistent with previous work, PKC-θ accumulated at the distal pole of control Tregs after 5 minutes of anti-CD3/CD28 mAb activation (FIG. 8A, top).
# Tcon = test: in vitro Treg suppression, Tcon type not specified; format: cell-based, mouse
# Description: as §1
# On day 3 after transfection, CD4/8 Tcon and T-cell depleted splenoctyes were isolated for a suppression assay. CD4/CD8 Tcon were purified from spleen of CD45.1 C57BL/6 mice using negative selection with eBioscience biotinylated Ab (anti-CD19, B220, NK1.1, gamma-delta TCR) and StemCell technologies streptavidin RapidSphere technology. Once isolated, Tcon were labeled with CFSE (2.5 μM) for 5 minutes at room temperature with constant agitation.
# Responder Tcon were provided with 0.75 μg/mL soluble anti-CD3 mAb. […]
# [4] = system: phosphorylated proteins in activated Tregs; test: flow cytometry analysis of phosphorylated proteins (phosphoflow) in Tregs; format: cell-based, mouse
# Description: In addition, the mTORC2-specific phosphorylation site on Akt, serine 473, was reduced, whereas the […] phosphorylation site, threonine 308, was unaltered. […] As both mTORC1 and mTORC2 are involved in T-cell metabolism, the effect of AEB071 treatment on Treg oxygen consumption rate (OCR) was investigated. […] Increased OCR has been associated with increased Treg function. […]
# Since PKC-θ inhibition modulated Treg metabolism and mTORC2 function, experiments were performed to determine whether vimentin siRNA might have a similar effect. […] Since mTORC2 signaling was reduced after PKC-θ inhibition, it was hypothesized that mTORC2 activity also could be reduced after treatment with vimentin siRNA.
# [5] = 10 μM AEB071 30 minutes vs DMSO, activated overnight with anti-CD3/28 and IL-2
# [6] = PKC-θ inhibition (AEB071), activated Tregs
# T1 sequence (Q02111 whole entry): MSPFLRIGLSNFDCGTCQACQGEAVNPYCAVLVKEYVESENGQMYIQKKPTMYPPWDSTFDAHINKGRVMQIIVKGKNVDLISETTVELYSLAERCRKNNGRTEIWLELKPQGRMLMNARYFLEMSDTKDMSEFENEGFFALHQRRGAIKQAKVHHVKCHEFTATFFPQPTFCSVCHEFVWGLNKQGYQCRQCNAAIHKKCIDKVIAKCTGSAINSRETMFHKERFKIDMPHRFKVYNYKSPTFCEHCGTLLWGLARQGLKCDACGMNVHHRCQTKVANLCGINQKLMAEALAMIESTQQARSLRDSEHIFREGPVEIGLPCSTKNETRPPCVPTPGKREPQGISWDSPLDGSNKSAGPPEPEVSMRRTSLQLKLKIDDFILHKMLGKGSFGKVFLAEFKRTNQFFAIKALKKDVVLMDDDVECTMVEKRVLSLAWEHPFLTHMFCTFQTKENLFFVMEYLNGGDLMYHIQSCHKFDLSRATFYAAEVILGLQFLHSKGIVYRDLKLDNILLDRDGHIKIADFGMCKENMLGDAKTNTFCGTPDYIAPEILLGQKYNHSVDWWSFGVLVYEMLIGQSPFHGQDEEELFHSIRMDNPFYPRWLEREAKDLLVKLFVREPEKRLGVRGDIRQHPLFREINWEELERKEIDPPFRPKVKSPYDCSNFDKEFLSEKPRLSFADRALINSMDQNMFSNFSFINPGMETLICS
smiles,measurement,setting,value
CN1CCN(c2nc(C3=C(c4c[nH]c5ccccc45)C(=O)NC3=O)c3ccccc3n2)CC1 [AEB071],surface expression of Lymphocyte activation gene 3 (Lag3),Tregs [1]; [5],significantly increased; also recorded: augmented expression
same,surface expression of Neuropilin-1 (Nrp1),Tregs [1]; [5],significantly increased; also recorded: augmented expression
same,GI homing molecule expression,Tregs [1]; AEB071 treatment,did not increase
same,Tcon displacement from APCs,Tcon-APC interactions,significantly increased
same,Tcon velocity,Tcon-APC interactions,significantly increased
same,expression of Lag3,splenic Tregs,augmented expression
same,expression of Nrp1,splenic Tregs,augmented expression
same,baseline Treg oxygen consumption rate (OCR),Tregs [2]; time 0-19 min,significantly increased
same,maximal Treg OCR,Tregs [2]; time 53-70 min,significantly increased
same,number of proteins with significant alterations in phosphorylation sites,[3]; AEB071 vs DMSO treated human Tregs,72
same,phosphorylation of adaptor molecule that links PKC-θ to vimentin (RLTPR),"[3]; AEB071 vs DMSO, b140: RLTPR serine 1226, PKC-theta consensus site",reduced phosphorylation
same,GVHD severity,acute GVHD; Tregs treated 30 minutes with 10 μM AEB071 vs DMSO-treated Tregs,significantly better
same,recipient survival / GVHD mortality,"acute GVHD; Tregs treated 30 minutes with 10 μM AEB071 vs DMSO-treated Tregs, p=0.0036",significantly increased recipient survival; also recorded: significantly better
same,Tcon proliferation on D4 after transplant,acute GVHD; mice given AEB071 treated Tregs vs DMSO treated Tregs,significant reduction
same,interaction / overlap between vimentin and PKC-θ,PKC-θ/vimentin; AEB071-pre-treated Tregs after activation vs control,reduced the interaction
same,PKC-θ localization,PKC-θ/vimentin; AEB071-pre-treated Tregs after anti-CD3/CD28 activation vs control,dispersed throughout the cell
same,Treg function after AEB071-treatment of vimentin siRNA transfected Tregs,Tcon; AEB071 added to vimentin siRNA transfected Tregs,did not further augment
same,effect of AEB071 treatment under antibody blockade of Nrp1 and Lag3,Tcon; in vitro trans-well suppression assays,reduced the effect
same,PKC-θ auto-phosphorylation at Ser676,"[4]; AEB071 treatment, stated by comparison with vimentin siRNA",significantly reduced
same,Akt phosphorylation at serine 473 (mTORC2-specific site),[4]; [6],reduced
same,Akt phosphorylation at threonine 308 (mTORC1-specific site),[4]; [6],unaltered
same,phosphorylation of mTORC2 target FoxO3a,[4]; [6],reduced phosphorylation
